Experimental data reported in ChEMBL document CHEMBL4359884, “Design, synthesis and biological evaluation of novel pleuromutilin derivatives possessing acetamine phenyl linker” (Eur J Med Chem, 2019).
Converted amounts (≈) assume the structure as drawn.

Experiments:
Staphylococcus aureus [1] = assay: Antibacterial activity against Staphylococcus aureus AD3 assessed as bacterial growth inhibition incubated for 24 hrs by broth dilution method; type: functional; settings: AD3, 24 h
Staphylococcus aureus [2] = assay: Antibacterial activity against methicillin-resistant Staphylococcus aureus ATCC 43300 assessed as bacterial growth inhibition incubated for 24 hrs by broth dilution method; type: functional; settings: ATCC 43300, 24 h
Escherichia coli [3] = assay: Antibacterial activity against Escherichia coli ATCC 25922 assessed as bacterial growth inhibition incubated for 24 hrs by broth dilution method; type: functional; settings: ATCC 25922, 24 h
Staphylococcus aureus [4] = assay: Antibacterial activity against Staphylococcus aureus ATCC 29213 assessed as bacterial growth inhibition incubated for 24 hrs by broth dilution method; type: functional; settings: ATCC 29213, 24 h
Escherichia coli [5] = assay: Antibacterial activity against Escherichia coli 9-1 assessed as bacterial growth inhibition incubated for 24 hrs by broth dilution method; type: functional; settings: 9-1, 24 h
Staphylococcus aureus [6] = assay: Antibacterial against methicillin-resistant Staphylococcus aureus ATCC 43300 assessed as post antibiotic effect time at 2 times MIC incubated for 1 hr followed by compound washout and then incubated for 20 hrs onto MH agar plate; type: functional
Staphylococcus aureus [7] = assay: Antibacterial against methicillin-resistant Staphylococcus aureus ATCC 43300 assessed as post antibiotic effect time at 4 times MIC incubated for 1 hr followed by compound washout and then incubated for 20 hrs onto MH agar plate; type: functional
Staphylococcus aureus [8] = assay: Antibacterial against methicillin-resistant Staphylococcus aureus ATCC 43300 assessed as post antibiotic effect time at 4 times MIC incubated for 2 hrs followed by compound washout and then incubated for 20 hrs onto MH agar plate; type: functional
Staphylococcus aureus [9] = assay: (§1) Bactericidal activity against methicillin-resistant Staphylococcus aureus ATCC 43300 assessed as reduction in colony forming unit at 4 times MIC incubated for 24 hrs followed by compound dilution with saline and then incubated for 20 hrs on MH agar plate by time-kill kinetics assay; type: functional
Staphylococcus aureus [10] = assay: as §1, with “3” for “24”, “assay relative to control” for “assay”; type: functional; set-up: scale not given: the % may be the effect or the level left
Staphylococcus aureus [11] = assay: Antibacterial against methicillin-resistant Staphylococcus aureus ATCC 43300 assessed as post antibiotic effect time at 2 times MIC incubated for 2 hrs followed by compound washout and then incubated for 20 hrs onto MH agar plate; type: functional
Staphylococcus aureus [12] = assay: Antibacterial activity against methicillin-resistant Staphylococcus aureus infected in neutropenic thigh infection ICR/Swiss mouse model assessed reduction in colony forming unit in thigh at 20 mg/kg, iv administered 2 hrs post infection and measured at 24 hrs after drug dosage; type: functional
Staphylococcus aureus [13] = assay: Bactericidal activity against methicillin-resistant Staphylococcus aureus ATCC 43300 assessed as reduction in colony forming unit at 4 times MIC incubated for 3 hrs followed by compound dilution with saline and then incubated for 20 hrs on MH agar plate by time-kill kinetics assay; type: functional
Staphylococcus aureus [14] = assay: Antibacterial activity against methicillin-resistant Staphylococcus aureus infected in systemic infection ICR mouse model assessed as animal survival rate at 30 mg/kg, iv relative to control; type: functional
[15] = AUC (0 to t) in ICR mouse at 10 mg/kg, iv by LC-MS/MS analysis; type: ADME, organism-based; settings: in vivo
[16] = Clearance in ICR mouse at 10 mg/kg, iv by LC-MS/MS analysis; type: ADME, organism-based; settings: in vivo
[17] = Tmax in ICR mouse at 10 mg/kg, iv by LC-MS/MS analysis; type: ADME, organism-based; settings: in vivo
[18] = MRT in ICR mouse at 10 mg/kg, iv by LC-MS/MS analysis; type: ADME, organism-based; settings: in vivo
[19] = AUC (0 to infinity) in ICR mouse at 10 mg/kg, iv by LC-MS/MS analysis; type: ADME, organism-based; set-up: dose 10 mg/kg, route intravenous, time infinity; settings: in vivo
[20] = Half life in ICR mouse at 10 mg/kg, iv by LC-MS/MS analysis; type: ADME, organism-based; settings: in vivo
Staphylococcus aureus [21] = assay: Bactericidal activity against methicillin-resistant Staphylococcus aureus ATCC 43300 assessed as reduction in bacterial growth at 4 times MIC incubated for 24 hrs followed by compound dilution with saline and then incubated for 20 hrs on MH agar plate by time-kill kinetics assay relative to control; type: functional; set-up: scale not given: the % may be the effect or the level left
[22] = Cmax in ICR mouse at 10 mg/kg, iv by LC-MS/MS analysis; type: ADME, organism-based; set-up: dose 10 mg/kg, route intravenous; settings: in vivo

SMILES	MIC (Staphylococcus aureus [1]) [µg/mL]	MIC (Staphylococcus aureus [2]) [µg/mL]	MIC (Escherichia coli [3]) [µg/mL]	MIC (Staphylococcus aureus [4]) [µg/mL]	MIC (Escherichia coli [5]) [µg/mL]	further results
C=C[C@]1(C)C[C@@H](OC(=O)CSc2ccccc2NC(=O)CN2CCN(c3ccccc3Cl)CC2)[C@]2(C)[C@H](C)CC[C@]3(CCC(=O)[C@H]32)[C@@H](C)[C@@H]1O	8 (≈ 11.1 µM)	8 (≈ 11.1 µM)	> 32	8 (≈ 11.1 µM)	> 32	–
C=C[C@]1(C)C[C@@H](OC(=O)CSc2ccccc2NC(=O)CN2CCN(c3ccccc3)CC2)[C@]2(C)[C@H](C)CC[C@]3(CCC(=O)[C@H]32)[C@@H](C)[C@@H]1O	0.25 (≈ 0.363 µM)	0.25 (≈ 0.363 µM)	> 32	0.25 (≈ 0.363 µM)	> 32	–
C=C[C@]1(C)C[C@@H](OC(=O)CSc2ccccc2NC(=O)CN2CCN(c3ccccc3C)CC2)[C@]2(C)[C@H](C)CC[C@]3(CCC(=O)[C@H]32)[C@@H](C)[C@@H]1O	2 (≈ 2.85 µM)	2 (≈ 2.85 µM)	> 32	4 (≈ 5.7 µM)	> 32	–
C=C[C@]1(C)C[C@@H](OC(=O)CSc2ccccc2NC(=O)CN2CCC(O)CC2)[C@]2(C)[C@H](C)CC[C@]3(CCC(=O)[C@H]32)[C@@H](C)[C@@H]1O	0.25 (≈ 0.399 µM)	0.125 (≈ 0.199 µM)	> 32	0.125 (≈ 0.199 µM)	> 32	–
C=C[C@]1(C)C[C@@H](OC(=O)CSc2ccccc2NC(=O)CN2CCN(c3ccc(OC)cc3)CC2)[C@]2(C)[C@H](C)CC[C@]3(CCC(=O)[C@H]32)[C@@H](C)[C@@H]1O	0.5 (≈ 0.696 µM)	2 (≈ 2.79 µM)	> 32	4 (≈ 5.57 µM)	> 32	–
C=C[C@]1(C)C[C@@H](OC(=O)CSc2ccccc2NC(=O)CN2CCCC2)[C@]2(C)[C@H](C)CC[C@]3(CCC(=O)[C@H]32)[C@@H](C)[C@@H]1O	0.125 (≈ 0.209 µM)	0.25 (≈ 0.419 µM)	> 32	0.125 (≈ 0.209 µM)	> 32	–
C=C[C@]1(C)C[C@@H](OC(=O)CSc2ccccc2NC(=O)CN2CCN(c3ccc(O)cc3)CC2)[C@]2(C)[C@H](C)CC[C@]3(CCC(=O)[C@H]32)[C@@H](C)[C@@H]1O	0.5 (≈ 0.71 µM)	1 (≈ 1.42 µM)	> 32	1 (≈ 1.42 µM)	> 32	–
C=C[C@]1(C)C[C@@H](OC(=O)CSCCN(CC)CC)[C@]2(C)[C@H](C)CC[C@]3(CCC(=O)[C@H]32)[C@@H](C)[C@@H]1O [TIAMULIN]	0.5 (≈ 1.01 µM)	0.5 (≈ 1.01 µM)	–	1 (≈ 2.03 µM)	–	Time (Staphylococcus aureus [6]): 1.53 h; Time (Staphylococcus aureus [7]): 1.9 h; Time (Staphylococcus aureus [8]): 2.04 h; Activity (Staphylococcus aureus [9]): 1.9 log10CFU/ml; Activity (Staphylococcus aureus [10]): 97%; Time (Staphylococcus aureus [11]): 1.65 h; Activity (Staphylococcus aureus [12]): 0.59 log10CFU/ml; Activity (Staphylococcus aureus [13]): 1.54 log10CFU/ml; Activity (Staphylococcus aureus [14]): 20%
C=C[C@]1(C)C[C@@H](OC(=O)CSc2ccccc2NC(=O)CN2CCN(c3cccc([N+](=O)[O-])c3)CC2)[C@]2(C)[C@H](C)CC[C@]3(CCC(=O)[C@H]32)[C@@H](C)[C@@H]1O	4 (≈ 5.46 µM)	4 (≈ 5.46 µM)	> 32	4 (≈ 5.46 µM)	> 32	–
C=C[C@]1(C)C[C@@H](OC(=O)CSc2ccccc2NC(=O)CN2CCC(O)C2)[C@]2(C)[C@H](C)CC[C@]3(CCC(=O)[C@H]32)[C@@H](C)[C@@H]1O (some centres not stated)	0.25 (≈ 0.408 µM)	0.125 (≈ 0.204 µM)	> 32	0.25 (≈ 0.408 µM)	> 32	–
C=C[C@]1(C)C[C@@H](OC(=O)CSc2ccccc2NC(=O)CN2CCOCC2)[C@]2(C)[C@H](C)CC[C@]3(CCC(=O)[C@H]32)[C@@H](C)[C@@H]1O	0.125 (≈ 0.204 µM)	0.06 (≈ 0.0979 µM)	> 32	0.06 (≈ 0.0979 µM)	> 32	Time (Staphylococcus aureus [6]): 1.62 h; AUC(0-t) [15]: 470 ng·h/mL; clearance [16]: 361 mL/min/kg; Time (Staphylococcus aureus [7]): 2.05 h; Tmax [17]: 4.98 min; Time (Staphylococcus aureus [8]): 3.47 h; MRT [18]: 36.6 min; AUC(0-inf) [19]: 480 ng·h/mL; half-life [20]: 413 min; Time (Staphylococcus aureus [11]): 2.64 h; Activity (Staphylococcus aureus [21]): 100%; Activity (Staphylococcus aureus [12]): 1.4 log10CFU/ml; Activity (Staphylococcus aureus [13]): 2.19 log10CFU/ml; Cmax [22]: 1760 ng/mL; Activity (Staphylococcus aureus [14]): 60%
C=C[C@]1(C)C[C@@H](OC(=O)CSc2ccccc2NC(=O)CN2CCN(c3cccc(C)c3)CC2)[C@]2(C)[C@H](C)CC[C@]3(CCC(=O)[C@H]32)[C@@H](C)[C@@H]1O	> 8	> 8	> 32	> 8	> 32	–
C=C[C@]1(C)C[C@@H](OC(=O)CSc2ccccc2NC(=O)CN2CCN(c3cccc(OC)c3)CC2)[C@]2(C)[C@H](C)CC[C@]3(CCC(=O)[C@H]32)[C@@H](C)[C@@H]1O	1 (≈ 1.39 µM)	4 (≈ 5.57 µM)	> 32	> 8	> 32	–
C=C[C@]1(C)C[C@@H](OC(=O)CSc2ccccc2NC(=O)CN2CCN(c3ccccc3F)CC2)[C@]2(C)[C@H](C)CC[C@]3(CCC(=O)[C@H]32)[C@@H](C)[C@@H]1O	1 (≈ 1.42 µM)	2 (≈ 2.83 µM)	> 32	8 (≈ 11.3 µM)	> 32	–
C=C[C@]1(C)C[C@@H](OC(=O)CSc2ccccc2NC(=O)CN2CCN(c3ccccc3O)CC2)[C@]2(C)[C@H](C)CC[C@]3(CCC(=O)[C@H]32)[C@@H](C)[C@@H]1O	0.5 (≈ 0.71 µM)	1 (≈ 1.42 µM)	> 32	2 (≈ 2.84 µM)	> 32	–
C=C[C@]1(C)C[C@@H](OC(=O)CSc2ccccc2NC(=O)CN2CCN(c3ccc(C)cc3)CC2)[C@]2(C)[C@H](C)CC[C@]3(CCC(=O)[C@H]32)[C@@H](C)[C@@H]1O	> 8	> 8	> 32	> 8	> 32	–
C=C[C@]1(C)C[C@@H](OC(=O)CSc2ccccc2NC(=O)CN2CCN(c3ccc([N+](=O)[O-])cc3)CC2)[C@]2(C)[C@H](C)CC[C@]3(CCC(=O)[C@H]32)[C@@H](C)[C@@H]1O	2 (≈ 2.73 µM)	2 (≈ 2.73 µM)	> 32	4 (≈ 5.46 µM)	> 32	–
C=C[C@]1(C)C[C@@H](OC(=O)CSc2ccccc2NC(=O)CN(CC)CC)[C@]2(C)[C@H](C)CC[C@]3(CCC(=O)[C@H]32)[C@@H](C)[C@@H]1O	0.125 (≈ 0.209 µM)	0.125 (≈ 0.209 µM)	> 32	0.125 (≈ 0.209 µM)	> 32	–
C=C[C@]1(C)C[C@@H](OC(=O)CSc2ccccc2NC(=O)CN2CCN(c3ccccc3[N+](=O)[O-])CC2)[C@]2(C)[C@H](C)CC[C@]3(CCC(=O)[C@H]32)[C@@H](C)[C@@H]1O	> 8	4 (≈ 5.46 µM)	> 32	> 8	> 32	–
C=C[C@]1(C)C[C@@H](OC(=O)CSc2ccccc2NC(=O)CN2CCN(c3ccccc3OC)CC2)[C@]2(C)[C@H](C)CC[C@]3(CCC(=O)[C@H]32)[C@@H](C)[C@@H]1O	> 8	> 8	> 32	> 8	> 32	–
C=C[C@]1(C)C[C@@H](OC(=O)CSc2ccccc2NC(=O)CN2CCN(C)CC2)[C@]2(C)[C@H](C)CC[C@]3(CCC(=O)[C@H]32)[C@@H](C)[C@@H]1O	0.5 (≈ 0.799 µM)	0.5 (≈ 0.799 µM)	> 32	0.5 (≈ 0.799 µM)	> 32	–
C=C[C@]1(C)C[C@@H](OC(=O)CSc2ccccc2NC(=O)CN2CCN(c3cccc(Cl)c3)CC2)[C@]2(C)[C@H](C)CC[C@]3(CCC(=O)[C@H]32)[C@@H](C)[C@@H]1O	2 (≈ 2.77 µM)	1 (≈ 1.38 µM)	> 32	1 (≈ 1.38 µM)	> 32	–
C=C[C@]1(C)C[C@@H](OC(=O)CSc2ccccc2NC(=O)CN2CCN(c3cccc(O)c3)CC2)[C@]2(C)[C@H](C)CC[C@]3(CCC(=O)[C@H]32)[C@@H](C)[C@@H]1O	0.25 (≈ 0.355 µM)	0.125 (≈ 0.178 µM)	> 32	0.25 (≈ 0.355 µM)	> 32	–
